Legend:
[1] = system: ovariectomized mature female rats; assay: Ovariectomized mature female rat model; format: in vivo
Description: Ovariectomized mature female rats are used to characterize primarily bone activity of the compositions provided herein or the individual SERM or SARM compounds. A sham group is used as control. The model can be run in either maintenance mode where the animals are dosed one day after the ovariectomy or restoration mode where the animals are dosed seven to eight weeks after the surgery. The rats are scanned by dual energy x-ray absorptiometry and sorted into experimental groups based upon femoral bone mineral content (BMC). Three dosages of testing compositions/compounds are administered orally once a day for 4, 8, or 12 weeks and estradiol and testosterone are administered subcutaneously to the reference groups. Animals received subcutaneous injections of fluorochrome markers for bone histomorphometric analysis. Alizarian Red S was prepared as a 3% solution and given at a dose of 30 mg/kg at the time of the baseline scan. Calcein was administered 10 days and 3 days prior to necropsy.
Approximately 24 hours after the last dose, blood is collected and the gastrocnemius muscle, plantaris muscle, uterus, clitoral glands, clitoris and inguinal fat pads were isolated, blotted and weighed individually. The left femur and lumbar vertebra L5 are wrapped in saline-soaked gauze and stored at −20° C. for biochemical analysis. The right femur and lumbar vertebrae L3-L4 are collected and stored in 70% ethanol for histomorphometry. The right tibia is collected in formalin for histological analysis. The left tibia is collected on dry ice and stored at −20° C. for measurement of alkaline phosphatase activity.
BMC, bone mineral density (BMD) and bone length are measured by pDEXA on an entire femur. The coefficient of variation for repeated measurement of the isolated femur is less than 0.4% for the BMC and the BMD measurements. […] Serum osteocalcin, a marker for bone turnover, and alkaline phosphatase derived from the tibial periosteum are also measured. Whole femurs are collected for biomechanical analysis and thawed at room temperature prior to testing. Peak load and peak displacement are measured directly from the load cell and the crosshead, respectively. Stiffness is calculated from the slope of the linear region of the load/displacement curve. Lumbar vertebra L5 is also measured in the mechanical testing for bone strength.
Bone histomorphometry is performed to indicate growth of the new bone during the study. The section from the lumbar vertebral bodies is used for histomorphometric indices of cancellous bone, while the sections of the femur mid-shafts are used for histomorphometric indices of cortical bone.
Body weight, gastrocnemius weight and plantaris weight changes are measured indicating anabolic activity of the testing compositions/compounds on skeletal muscle. Inguinal fat pad weight is used as a representative fat pad to assess the effects of the testing compounds on body fat. Clitoral gland and clitoral weights are measured to assess the virilizing effect of drugs.
In the maintenance node of this model, (5R,6S)-6-phenyl-5-[4-(2-pyrrolidin-1-ylethoxy)phenyl]-5,6,7,8-tetrahydronaphthalen-2-ol (Compound 1) was dosed daily at 0 (sham), 0 (OVX), 0.01, 0.05, and 0.25 mg/kg for 8 weeks and 17α-ethynylestradiol was dosed at 0.03 mg/kg/day. […] Micro-computerized tomography (uCT) measured the density and connectivity of the trabecular bone in the femur and pQCT measured at the distal femur.
In the restoration mode of this osteopenic female rat model, 4-(2(R)-(1(S)-hydroxyl-2,2,2-trifluoroethyl)-pyrrolidinyl)-2-trifluoromethylbenzonitrile (Compound 2, Formula I, R^1═CF3, R^2═R^3═H) was dosed at 0 (sham), 0 (OVX), 0.03, 0.3, and 3 mg/kg orally for 12 weeks. […] Compound 2 suppressed cancellous bone turnover while increasing trabecular bone volume and increasing bone mineral density at the lumbar spine.
In the same experiment of Compound 2, another SARM compound, ostarine, was dosed at 0.03, 0.3, and 3 mg/kg/day orally for 12 weeks.

[2] = system: orchidectomized male Sprague-Dawley rat; assay: Orchidectomized mature male rat model; settings: based on AUC-activity relationship analysis
[3] = OVX rat, subcutaneous reference

17α-ethynylestradiol
uterine wet weight decrease after OVX surgery ([1]; maintenance mode, daily for 8 weeks, Compound 1 0.01, 0.05, 0.25 mg/kg (all doses), 17α-ethynylestradiol 0.03 mg/kg/day): completely blocked
bone density decrease caused by OVX (uCT trabecular bone in the femur, pQCT distal femur) ([1]; maintenance mode, daily for 8 weeks, Compound 1 0.01, 0.05, 0.25 mg/kg, 17α-ethynylestradiol 0.03 mg/kg/day): prevent the bone density decrease

CCC(=O)O[C@H]1CC[C@H]2[C@@H]3CCC4=CC(=O)CC[C@]4(C)[C@H]3CC[C@]12C [Testosterone propionate]
clitoral gland and clitoral weights (virilizing effect) ([1]; OVX rat, 1 mg/kg daily dose): significantly increases

C[C@]12CC[C@H]3[C@@H](CCC4=CC(=O)CC[C@@]43C)[C@@H]1CC[C@@H]2O [Testosterone, testosterone]
femur bending stiffness [1, 3]: increases
femur bending strength [1, 3]: does not significantly increase

C[C@](O)(COc1ccc(C#N)cc1)C(=O)Nc1ccc(C#N)c(C(F)(F)F)c1 [ostarine]
exposure at maximal efficacy relative to Compound 2 ([1]; restoration mode, higher exposure = decreased potency): ~10 fold
potency relative to Compound 2 (fold less) [2]: ~10 fold
